# According to article PMC7269513 (Antimicrobial Agents and Chemotherapy, 2020):
# Several values for one entry are separate records, joined by “and”; a condition that tells them apart may be missing. Equal entries are not always repeated.
# Key:
# KPC-2 [1] = target: T1, KPC-2 (Klebsiella pneumoniae, UniProt Q9F663); experiment: IC50 of beta-lactamase inhibition (nitrocefin hydrolysis); format: biochemical; conditions: KPC-2, class A; substrate nitrocefin; 10 min preincubation at 37°C; read-out: IC50 (nM) of drug
# CTX-M-14 = CTX-M-14 (Escherichia coli, UniProt Q9L5C7); experiment: as above; format: biochemical; conditions: read-out: IC50 (nM) of drug
# SHV-12 [2] = target: T2, SHV-12 (Klebsiella pneumoniae, UniProt P0AD64, E235K/G234S/L31Q); experiment: as above; format: biochemical; conditions: read-out: IC50 (nM) of drug
# CTX-M-15 [3] = target: T3, CTX-M-15 (Escherichia coli, UniProt Q9EXV5); experiment: as above; format: biochemical; conditions: read-out: IC50 (nM) of drug
# Experimental: (§1) […]; Initial rates of reaction were calculated and exported to Prism software to calculate IC50 values using the “dose-response—inhibition, variable slope (four parameters)” equation. Ki values were calculated by the method of Waley ([31]). This method was previously used to calculate Ki values for boronic fast-on–fast-off BLIs.
# P99 [4] = target: T4, P99 (Enterobacter cloacae, UniProt P05364); experiment: as above; format: biochemical; conditions: P99, class C; substrate nitrocefin; 10 min preincubation at 37°C; read-out: IC50 (nM) of drug
# Experimental: as §1
# OXA-48 [5] = target: T5, OXA-48 (Klebsiella pneumoniae, UniProt Q6XEC0); experiment: as above; format: biochemical, Enterobacteriaceae; conditions: read-out: IC50 (nM) of drug
# OXA-23 [6] = target: T6, OXA-23 (Acinetobacter baumannii, UniProt Q9L4P2); experiment: as above; format: biochemical; conditions: read-out: IC50 (nM) of drug
# VIM-1 [7] = target: T7, VIM-1 (Pseudomonas aeruginosa, UniProt A0A0F7KYQ8); experiment: as above; format: biochemical; conditions: read-out: IC50 (nM) of drug
# IMP-1 [8] = target: T8, IMP-1 (Serratia marcescens, UniProt P52699); experiment: IC50 of beta-lactamase inhibition (imipenem hydrolysis); format: biochemical
# SHV-12 [9] = target: T2, SHV-12; experiment: biochemical; conditions: derived from the ratio of koff and k2/K
# CTX-M-15 [10] = target: T3, CTX-M-15; experiment: koff of enzyme activity recovery, jump dilution method; format: biochemical; conditions: derived from the ratio of koff and k2/K
# Experimental: (§2) Enzyme at a 1 μM concentration in buffer A was mixed with BLI at an 8-fold-higher concentration than its stoichiometry ratio (determined in preliminary stoichiometry experiments). […].
# KPC-2 [11] = target: T1, KPC-2; experiment: as above; format: biochemical; conditions: derived from the ratio of koff and k2/K
# Experimental: as §2
# KPC-3 [12] = target: T9, KPC-3 (Klebsiella pneumoniae, UniProt Q9F663, H272Y); experiment: as above; format: biochemical; conditions: derived from the ratio of koff and k2/K
# Experimental: as §2
# OXA-23 [13] = target: T6, OXA-23; experiment: as above; format: biochemical; conditions: derived from the ratio of koff and k2/K
# Experimental: as §2
# OXA-24 [14] = target: T10, OXA-24 (Acinetobacter baumannii, UniProt Q8RLA6); experiment: as above; format: biochemical; conditions: derived from the ratio of koff and k2/K
# Experimental: as §2
# OXA-58 [15] = target: T11, OXA-58 (Acinetobacter baumannii, UniProt Q2TR58); experiment: as above; format: biochemical; conditions: derived from the ratio of koff and k2/K
# Experimental: as §2
# P99 [16] = target: T4, P99; experiment: as above; format: biochemical; conditions: derived from the ratio of koff and k2/K
# Experimental: as §2
# SME-2 [17] = target: T12, SME-2 (Serratia marcescens, UniProt P52682, V207Q); experiment: as above; format: biochemical; conditions: derived from the ratio of koff and k2/K
# Experimental: as §2
# OXA-48 [18] = target: T5, OXA-48; experiment: as above; format: biochemical, Enterobacteriaceae; conditions: derived from the ratio of koff and k2/K
# Experimental: as §2
# BKC-1 = BKC-1 (Klebsiella pneumoniae, UniProt A0A0F6QEY8); experiment: Stoichiometry of beta-lactamase inhibition; format: biochemical; conditions: minimal BLI/enzyme ratio reducing enzyme activity by at least 90%
# Experimental: (§3) Purified enzyme at 1 μM concentration in buffer A was mixed with BLI at a BLI/enzyme ratio varying from 128 to 0.0625. […]. Stoichiometry of inhibition was determined as a minimal BLI/enzyme ratio reducing enzyme activity by at least 90%.
# FRI-1 = FRI-1 (Enterobacter cloacae, UniProt A0A0M5L4T8); experiment: Stoichiometry of beta-lactamase inhibition; format: biochemical; conditions: minimal BLI/enzyme ratio reducing enzyme activity by at least 90%
# Experimental: as §3
# KPC-3 [19] = target: T9, KPC-3; experiment: Stoichiometry of beta-lactamase inhibition; format: biochemical; conditions: minimal BLI/enzyme ratio reducing enzyme activity by at least 90%
# Experimental: as §3
# SHV-12 [20] = target: T2, SHV-12; experiment: Stoichiometry of beta-lactamase inhibition; format: biochemical; conditions: minimal BLI/enzyme ratio reducing enzyme activity by at least 90%
# Experimental: as §3
# SME-2 [21] = target: T12, SME-2; experiment: Stoichiometry of beta-lactamase inhibition; format: biochemical; conditions: minimal BLI/enzyme ratio reducing enzyme activity by at least 90%
# Experimental: as §3
# TEM-43 = TEM-43 (Escherichia coli, UniProt P62593, E102K/M180T/R162H, species not given); experiment: Stoichiometry of beta-lactamase inhibition; format: biochemical; conditions: minimal BLI/enzyme ratio reducing enzyme activity by at least 90%
# Experimental: as §3
# CTX-M-15 [22] = target: T3, CTX-M-15; experiment: Stoichiometry of beta-lactamase inhibition; format: biochemical; conditions: minimal BLI/enzyme ratio reducing enzyme activity by at least 90%
# Experimental: (§4) […]. Stoichiometry of inhibition was determined as a minimal BLI/enzyme ratio reducing enzyme activity by at least 90%.
# KPC-2 [23] = target: T1, KPC-2; experiment: Stoichiometry of beta-lactamase inhibition; format: biochemical; conditions: minimal BLI/enzyme ratio reducing enzyme activity by at least 90%
# Experimental: as §4
# OXA-23 [24] = target: T6, OXA-23; experiment: Stoichiometry of beta-lactamase inhibition; format: biochemical; conditions: minimal BLI/enzyme ratio reducing enzyme activity by at least 90%
# Experimental: as §4
# OXA-24 [25] = target: T10, OXA-24; experiment: Stoichiometry of beta-lactamase inhibition; format: biochemical; conditions: minimal BLI/enzyme ratio reducing enzyme activity by at least 90%
# Experimental: as §4
# OXA-48 [26] = target: T5, OXA-48; experiment: Stoichiometry of beta-lactamase inhibition; format: biochemical; conditions: minimal BLI/enzyme ratio reducing enzyme activity by at least 90%
# Experimental: as §4
# OXA-58 [27] = target: T11, OXA-58; experiment: Stoichiometry of beta-lactamase inhibition; format: biochemical; conditions: minimal BLI/enzyme ratio reducing enzyme activity by at least 90%
# Experimental: as §4
# P99 [28] = target: T4, P99; experiment: Stoichiometry of beta-lactamase inhibition; format: biochemical; conditions: minimal BLI/enzyme ratio reducing enzyme activity by at least 90%
# Experimental: as §4
# IMP-1 [29] = target: T8, IMP-1; experiment: Ki of competitive MBL inhibition (method of Waley); format: biochemical
# Experimental: as §1
# VIM-1 [30] = target: T7, VIM-1; experiment: Ki of competitive MBL inhibition (method of Waley); format: biochemical
# Experimental: as §1
# [31] = system: strain producing cloned L1 from Stenotrophomonas maltophilia; conditions: strain producing cloned L1 (B3 subclass MBL); cited from earlier work
# [32] = Kd values for MBLs were based on Kis
structure (smiles),measurement,setting,value
O=C(O)c1c(F)ccc2c1OB(O)[C@@H]1C[C@H]21 [QPX7728],IC50,KPC-2 [1],2.9 ± 0.4 nM
same,IC50,CTX-M-14,0.94 ± 0.2 nM
same,IC50,SHV-12 [2],1.9 ± 0.6 nM
same,IC50,CTX-M-15 [3],1.2 ± 0.1 nM
same,IC50,P99 [4],~22 nM and 22 nM
same,IC50,OXA-48 [5],1 nM and 1.1 nM
same,IC50,OXA-23 [6],1 nM and 1.2 nM
same,IC50,VIM-1 [7],14 ± 4 nM
same,IC50,IMP-1 [8],610 ± 70 nM
same,Kd,SHV-12 [9],28 ± 4 nM
same,Kd,CTX-M-15 [10],0.11 ± 0.02 nM
same,Kd,KPC-2 [11],0.25 ± 0.03 nM
same,Kd,KPC-3 [12],0.31 ± 0.06 nM
same,Kd,OXA-23 [13],1.6 ± 0.2 nM
same,Kd,OXA-24 [14],0.58 ± 0.1 nM
same,Kd,OXA-58 [15],3.2 ± 0.3 nM
same,Kd,P99 [16],0.53 ± 0.06 nM
same,Kd,SME-2 [17],0.15 ± 0.02 nM
same,Kd,OXA-48 [18],0.13 ± 0.01 nM
same,Stoichiometry,BKC-1,1
same,Stoichiometry,FRI-1,1
same,Stoichiometry,KPC-3 [19],1
same,Stoichiometry,SHV-12 [20],1
same,Stoichiometry,SME-2 [21],1
same,Stoichiometry,TEM-43,1
same,Stoichiometry,CTX-M-15 [22],1
same,Stoichiometry,KPC-2 [23],1
same,Stoichiometry,OXA-23 [24],2
same,Stoichiometry,OXA-24 [25],1
same,Stoichiometry,OXA-48 [26],1
same,Stoichiometry,OXA-58 [27],1
same,Stoichiometry,P99 [28],1
same,Kd,IMP-1 [29]; [32],240 ± 30 nM
same,Ki,"IMP-1 [29]; competitive, fast-on–fast-off",240 ± 30 nM
same,Kd,VIM-1 [30]; [32],7.5 ± 2.1 nM
same,Ki,"VIM-1 [30]; competitive, fast-on–fast-off",7.5 ± 2.1 nM
same,ability to reduce MICs of meropenem and ceftazidime,[31],inability
